Experimental data reported in the supplement of paper PMC10307832.

Legend:
Assay in all cases: relative viability (nuclei count vs DMSO), 5 days (fraction); higher = more cells survive
[1] = compound: CC1=CC=C(C=C1)C(=O)CN2C3=C(CCCC3)SC2=N [Pifithrin_alpha] + CC1(C)CCC(c2ccc(Cl)cc2)=C(CN2CCN(c3ccc(C(=O)NS(=O)(=O)c4ccc(N[C@H](CCN5CCOCC5)CSc5ccccc5)c(S(=O)(=O)C(F)(F)F)c4)cc3)CC2)C1 [Navitoclax] (partner 0.5 µM)
Procedure, shortened: (§1)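 Relative viability was taken as the ratio of nuclei in treated wells to nuclei in vehicle wells. Lung cancer cell lines in 1536-well plates received compounds by pin tool one day after seeding, either one drug alone or a fixed anchor-drug dose plus five library-drug doses (not always all listed) in √10 steps. Nuclei were counted on 4× images after 5 days of treatment, and values are medians of duplicate plates.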

Bemcentinib + Navitoclax = compound: Nc1nc(Nc2ccc3c(c2)CC[C@@H](N2CCCC2)CC3)nn1-c1cc2c(nn1)-c1ccccc1CCC2 [Bemcentinib] + CC1(C)CCC(c2ccc(Cl)cc2)=C(CN2CCN(c3ccc(C(=O)NS(=O)(=O)c4ccc(N[C@H](CCN5CCOCC5)CSc5ccccc5)c(S(=O)(=O)C(F)(F)F)c4)cc3)CC2)C1 [Navitoclax] (partner 0.5 µM)
Procedure, shortened: as §1

Bemcentinib + Tozasertib = compound: Nc1nc(Nc2ccc3c(c2)CC[C@@H](N2CCCC2)CC3)nn1-c1cc2c(nn1)-c1ccccc1CCC2 [Bemcentinib] + Cc1cc(Nc2cc(N3CCN(C)CC3)nc(Sc3ccc(NC(=O)C4CC4)cc3)n2)n[nH]1 [Tozasertib] (partner 0.1 µM)
Procedure, shortened: as §1

Bemcentinib + Alpelisib = compound: Nc1nc(Nc2ccc3c(c2)CC[C@@H](N2CCCC2)CC3)nn1-c1cc2c(nn1)-c1ccccc1CCC2 [Bemcentinib] + Cc1nc(NC(=O)N2CCC[C@H]2C(N)=O)sc1-c1ccnc(C(C)(C)C(F)(F)F)c1 [Alpelisib] (partner 2 µM)
Procedure, shortened: as §1

Cell Line	relative viability ([1]; first compound 1 µM)	relative viability ([1]; first compound 3.162 µM)	relative viability ([1]; first compound 10 µM)	relative viability ([1]; first compound 31.62 µM)	relative viability ([1]; first compound 100 µM)	relative viability (Bemcentinib + Navitoclax; first compound 0.04 µM)	relative viability (Bemcentinib + Navitoclax; first compound 0.1265 µM)	relative viability (Bemcentinib + Navitoclax; first compound 0.4 µM)	relative viability (Bemcentinib + Navitoclax; first compound 1.265 µM)	relative viability (Bemcentinib + Navitoclax; first compound 4 µM)	relative viability (Bemcentinib + Tozasertib; first compound 0.04 µM)	relative viability (Bemcentinib + Tozasertib; first compound 0.1265 µM)	relative viability (Bemcentinib + Tozasertib; first compound 0.4 µM)	relative viability (Bemcentinib + Tozasertib; first compound 1.265 µM)	relative viability (Bemcentinib + Tozasertib; first compound 4 µM)	relative viability (Bemcentinib + Alpelisib; first compound 0.04 µM)	relative viability (Bemcentinib + Alpelisib; first compound 0.1265 µM)	relative viability (Bemcentinib + Alpelisib; first compound 0.4 µM)	relative viability (Bemcentinib + Alpelisib; first compound 1.265 µM)	relative viability (Bemcentinib + Alpelisib; first compound 4 µM)
201T	1.18	1.19	1.15	1.04	1.05	1.17	1.24	1.21	1.24	1.3	0.932	1.06	0.94	0.868	0.964	1.01	0.987	1.03	1.08	1.04
A549	1.37	1.26	1.14	0.985	1.29	1.2	1.27	1.32	1.29	1.2						0.834	0.892	0.754	0.988	0.875
A-427	0.803	0.843	0.79	0.773	0.933		0.946	0.826	0.909	1.07	0.192	0.192	0.197	0.213	0.201		1.05	1.18	1.04	1.15
ABC-1											0.16	0.175	0.187	0.193	0.162	1.22	1.07	1.08	0.997	1.07
BEN	0.0519	0.0641	0.0597	0.0612	0.0656	0.0583	0.0756	0.0599	0.055	0.0552	0.464	0.446	0.569	0.579	0.461	0.984	1.09	1.11	1.12	1.02
CAL-12T		1.22	1.16	0.686	1.15	1.12	1.28	1.25	1.19	1.32	0.302	0.368	0.307	0.286	0.329	1.19	1.51	1.37	1.31	1.16
COR-L23	1.09	1.09	0.974		1.19	1.14	1.11	1.1	1.03	1.03	0.232	0.167	0.225	0.211	0.183	0.874	0.778	0.965	0.9	0.904
COR-L 105	0.65	0.663	0.722	0.63	0.626	0.602	0.733	0.794	0.86	0.729	0.306	0.358	0.317	0.336	0.345	1.05	0.949	1.03	0.931	0.895
Calu-6	0.976	0.741	0.781	0.508	0.704	0.856	0.856	1.01	0.871	0.973						0.928	1.04	1.01	1.04	1.07
ChaGo-K-1	0.873	0.999	0.888	0.734	0.891	0.872	0.933	1.02	0.862	0.624	0.217	0.254	0.213	0.229	0.221					
EBC-1	0.386	0.318	0.29	0.221	0.224	0.377	0.404	0.431	0.394	0.422						0.843	0.863	0.825	0.849	0.76
EKVX	0.936	0.886	0.738	0.645	0.595	0.859	1.01	1.03	0.804	1.1	0.39	0.468	0.39	0.437	0.374	0.913	1.01	0.929	0.973	0.972
EMC-BAC-2	1.22	1.29	1.17	0.933	1.31	1.15	1.35	1.27	1.2	1.23	0.264	0.281	0.285	0.305	0.301	0.833	0.756	0.817	0.788	0.803
EPLC-272H		0.978	1.02	0.894	1.25		1.04	1.19	1.33	1.43	0.281	0.207	0.249	0.252	0.261		0.991	0.951	0.977	1.07
H3255	0.376	0.428	0.444	0.434	0.497	0.397	0.581	0.67	0.325	0.506	0.566	0.678	0.619	0.782	0.655	0.63	0.71	0.713	0.61	0.703
HARA	1.17	1.22	1.17	0.767	0.945	1.18	1.18	1.2	1.13	1.16	0.12	0.139	0.106	0.102	0.102	0.759	0.918	0.822	0.866	0.936
HCC-15	0.681	0.697	0.524	0.441	0.525	0.713	0.799	0.776	0.726	0.721	0.381	0.488	0.401	0.365	0.392	0.886	0.945	0.97	0.92	0.889
HCC-44	0.8	0.899	0.795	0.701	0.801	1.09	1.13	1.01	1.12	1.02	0.913	1.46	0.872	0.956	0.888	0.875	0.911	0.939	0.967	1.05
HCC-78	0.752	0.768	0.623		0.783	0.657	0.792	0.859	0.943	0.836	0.43	0.445	0.421		0.355	0.246	0.322	0.336	0.39	0.33
HCC-366	1.12	1.11	0.886		0.925	1.11	1.23	1.11	1.07	1.03	0.125	0.101	0.119	0.149	0.11	0.474	0.408	0.572	0.378	0.417

Cell Line	relative viability ([1]; first compound 1 µM)	relative viability ([1]; first compound 3.162 µM)	relative viability ([1]; first compound 10 µM)	relative viability ([1]; first compound 31.62 µM)	relative viability ([1]; first compound 100 µM)	relative viability (Bemcentinib + Navitoclax; first compound 0.04 µM)	relative viability (Bemcentinib + Navitoclax; first compound 0.1265 µM)	relative viability (Bemcentinib + Navitoclax; first compound 0.4 µM)	relative viability (Bemcentinib + Navitoclax; first compound 1.265 µM)	relative viability (Bemcentinib + Navitoclax; first compound 4 µM)	relative viability (Bemcentinib + Tozasertib; first compound 0.04 µM)	relative viability (Bemcentinib + Tozasertib; first compound 0.1265 µM)	relative viability (Bemcentinib + Tozasertib; first compound 0.4 µM)	relative viability (Bemcentinib + Tozasertib; first compound 1.265 µM)	relative viability (Bemcentinib + Tozasertib; first compound 4 µM)	relative viability (Bemcentinib + Alpelisib; first compound 0.04 µM)	relative viability (Bemcentinib + Alpelisib; first compound 0.1265 µM)	relative viability (Bemcentinib + Alpelisib; first compound 0.4 µM)	relative viability (Bemcentinib + Alpelisib; first compound 1.265 µM)	relative viability (Bemcentinib + Alpelisib; first compound 4 µM)
HCC-827	1.02	0.917	0.849	0.672	0.694	1.03	1.04	1.07	0.957	1.02	0.474	0.458	0.421	0.408	0.417	0.999	1.02	0.909	0.957	0.982
HOP-62	0.908	1.09	1.06	0.751	1.07	1.04	0.97	1.16	0.995	1.13	0.379	0.413	0.35	0.39	0.387	0.914	0.831		1.19	0.747
IA-LM	0.747	0.339	0.259	0.275	0.262	0.748	0.988	0.975	0.841	0.725						0.749	0.807	0.748	0.652	0.78
LC-2-ad	0.462	0.323	0.408	0.249	0.32	0.415	0.547	0.609	0.536	0.509	0.451	0.478	0.451	0.486	0.442	0.877	0.969	0.907	0.822	0.852
LCLC-97TM1		0.548	0.513		0.425	0.398	0.487		0.479	0.636	0.214	0.214	0.22	0.246	0.186	0.313	0.226		0.289	0.265
LCLC-103H											0.442	0.484	0.539	0.478	0.474	0.957	0.941	1.05	1.06	1.16
LK-2	0.862	1	0.749	0.534	0.997	0.755	0.903	0.994	0.904	0.904	0.166	0.164	0.19	0.178	0.168	1.1	1.22	1.27	1.15	1.31
LOU-NH91	0.502	0.576	0.643	0.409	0.517	0.639	0.728	0.625	0.674	0.722	0.651	0.639	0.635	0.709	0.63	0.631	0.702	0.7	0.717	0.71
NCI-H358											0.11	0.129	0.106	0.0963	0.119	0.97	0.826	1.04	0.826	0.971
NCI-H522											0.561	0.598	0.638	0.62	0.538					
NCI-H661											0.357	0.344	0.338	0.34	0.339	0.374	0.821	0.624	0.358	0.599
NCI-H1299	1.07	1.08	1	0.952	1	1.02	1.04	1.05	1.04	1						1.1	1.07	1.09	1.1	1.08
NCI-H1563																0.93	1.07	0.943	0.926	0.839
NCI-H1623											0.427	0.438	0.455	0.461	0.442					
NCI-H1648											0.571	0.424	0.584	0.391	0.49					
NCI-H1650	1.31	1.15	0.973	0.675	0.865	1.1	1.29	0.946	1.33	1.16	0.386	0.382	0.44	0.288	0.373					
NCI-H1703	1.34	0.99	1.1	0.674	1.12	1.08	1.03	1.34	1.04	0.85						0.29	0.382	0.39	0.312	0.426
NCI-H1792	0.438	0.753	0.339	0.325	0.529	0.668	0.57	0.859	0.697	0.665						0.812	0.66	0.828	0.746	0.781
NCI-H2342											0.574	0.429	0.492	0.464	0.516					
SW 900											0.458	0.807	0.54	0.611	0.529					
